In paper PMC9157009, “Protein proximity networks and functional evaluation of the casein kinase 1 gamma family reveal unique roles for CK1γ3 in WNT signaling” (The Journal of Biological Chemistry, 2022):
Where “and” joins values, the source holds several entries; their conditions need not be identical. Equal values may be shown once. One block for each compound: values may come before it.

Experiments:
[1] = tested on: BAR reporter (β-catenin-dependent WNT signaling); assay: BAR luciferase transcriptional reporter assay in HEK293T B/R cells; assay type: cell-based, human; conditions: for activation of the BAR reporter: HEK293T B/R cells, 10 μM compound for 18 h, compared with dimethyl sulfoxide and FP1
Procedure: All luciferase reporter assays were performed as previously described ([15], [43]). […] In both loss-of-function and gain-of-function experiments, treatments (WNT3A CM or drug) were added 18 h before harvesting cells. Conditions were plated in triplicate, and Renilla normalized values were averaged across triplicates to yield the data presented and standard error. Each assay was repeated in biological triplicate, unless otherwise stated. Firefly luciferase and the Renilla control were detected using the Promega Dual-Luciferase Reporter Assay System per the manufacturer’s protocol (Promega; catalog no.: E1960). Plates were read on the Victor Nivo plate reader (PerkinElmer).

[2] = tested on: β-catenin-dependent transcription; conditions: siRNA screen, BAR firefly luciferase reporter, ref Biechele et al, cited from earlier work; for Average BAR firefly Luciferase (Raw): raw signal per siRNA target
PCTK2 = target: T1, PCTK2 (Homo sapiens, UniProt Q00537); assay: scanMAX binding assay, PCTK2; conditions: Percent of Control; legend and method: 1 μM; read-out: PCTK2 PoC @ 1 µM
T1 construct: purchased Eurofins DiscoverX Corporation
From the text: (§1) As described previously, this commercial assay platform screens against 403 WT human kinases in binding assays and provides PoC values ([73]).

ERK8 = target: T2, ERK8 (Homo sapiens, UniProt Q8TD08); assay: scanMAX binding assay, ERK8; conditions: Percent of Control; legend and method: 1 μM; read-out: ERK8 PoC @ 1 µM
T2 construct: purchased Eurofins DiscoverX Corporation
From the text: as §1

PCTK3 = target: T3, PCTK3 (Homo sapiens, UniProt Q07002); assay: scanMAX binding assay, PCTK3; conditions: Percent of Control; legend and method: 1 μM; read-out: PCTK3 PoC @ 1 µM
T3 construct: purchased Eurofins DiscoverX Corporation
From the text: as §1

DYRK1B = target: T4, DYRK1B (Homo sapiens, UniProt Q9Y463); assay: scanMAX binding assay, DYRK1B; conditions: Percent of Control; legend and method: 1 μM; read-out: DYRK1B PoC @ 1 µM
T4 construct: purchased Eurofins DiscoverX Corporation
From the text: as §1

CDKL5 = target: T5, CDKL5 (Homo sapiens, UniProt O76039); assay: scanMAX binding assay, CDKL5; conditions: Percent of Control; legend and method: 1 μM; read-out: CDKL5 PoC @ 1 µM
T5 construct: purchased Eurofins DiscoverX Corporation
From the text: as §1

ICK = target: T6, ICK (Homo sapiens, UniProt Q9UPZ9); assay: scanMAX binding assay, ICK; conditions: Percent of Control; legend and method: 1 μM; read-out: ICK PoC @ 1 µM
T6 construct: purchased Eurofins DiscoverX Corporation
From the text: as §1

GSK3β = target: T7, GSK3β (Homo sapiens, UniProt P49841); assay: scanMAX binding assay, GSK3β; conditions: Percent of Control; legend and method: 1 μM; read-out: GSK3β PoC @ 1 µM
T7 construct: purchased Eurofins DiscoverX Corporation
From the text: as §1

CDK7 = target: T8, CDK7 (Homo sapiens, UniProt P50613); assay: scanMAX binding assay, CDK7; conditions: Percent of Control; legend and method: 1 μM; read-out: CDK7 PoC @ 1 µM
T8 construct: purchased Eurofins DiscoverX Corporation
From the text: as §1

CK1γ3 [3] = target: T9, CK1γ3 (Homo sapiens, UniProt Q9Y6M4); assay: scanMAX binding assay, CK1γ3; conditions: Percent of Control; legend and method: 1 μM; read-out: CK1γ3 PoC @ 1 µM
T9 construct: purchased Eurofins
From the text: as §1

PFTK1 = target: T10, PFTK1 (Homo sapiens, UniProt O94921); assay: scanMAX binding assay, PFTK1; conditions: Percent of Control; legend and method: 1 μM; read-out: PFTK1 PoC @ 1 µM
T10 construct: purchased Eurofins DiscoverX Corporation
From the text: as §1

CK1γ1 [4] = target: T11, CK1γ1 (Homo sapiens, UniProt Q9HCP0); assay: scanMAX binding assay, CK1γ1; conditions: Percent of Control; legend and method: 1 μM; read-out: CK1γ1 PoC @ 1 µM
T11 construct: purchased Eurofins
From the text: as §1

CK1γ3 [5] = target: T9, CK1γ3; assay: Eurofins kinase enzymatic radiometric assay, CK1γ3; assay type: biochemical; conditions: Km = ATP, 9-pt curve in duplicate
From the text: (§2) Details related to the substrate used, protein constructs, controls, and assay protocol for each kinase assay are included on the Eurofins website: https://www.eurofinsdiscoveryservices.com/.

PCTK1 = target: T12, PCTK1 (Homo sapiens, UniProt Q00536); assay: scanMAX binding assay, PCTK1; conditions: Percent of Control; legend and method: 1 μM; read-out: PCTK1 PoC @ 1 µM
T12 construct: purchased Eurofins DiscoverX Corporation
From the text: as §1

CAMK1B = target: T13, CAMK1B (Homo sapiens, UniProt Q6P2M8); assay: scanMAX binding assay, CAMK1B; conditions: Percent of Control; legend and method: 1 μM; read-out: CAMK1B PoC @ 1 µM
T13 construct: purchased Eurofins DiscoverX Corporation
From the text: as §1

GSK3α = target: T14, GSK3α (Homo sapiens, UniProt P49840); assay: scanMAX binding assay, GSK3α; conditions: Percent of Control; legend and method: 1 μM; read-out: GSK3α PoC @ 1 µM
T14 construct: purchased Eurofins DiscoverX Corporation
From the text: as §1

CK1γ2 = target: T15, CK1γ2 (Homo sapiens, UniProt P78368); assay: scanMAX binding assay, CK1γ2; conditions: Percent of Control; legend and method: 1 μM; read-out: CK1γ2 PoC @ 1 µM
T15 construct: purchased Eurofins
From the text: as §1

CK1γ1 [6] = target: T11, CK1γ1; assay: Eurofins kinase enzymatic radiometric assay, CK1γ1; assay type: biochemical; conditions: Km = ATP, 9-pt curve in duplicate
From the text: as §2

DCAMKL3 = target: T16, DCAMKL3 (Homo sapiens, UniProt Q9C098); assay: scanMAX binding assay, DCAMKL3; conditions: Percent of Control; legend and method: 1 μM; read-out: DCAMKL3 PoC @ 1 µM
T16 construct: purchased Eurofins DiscoverX Corporation
From the text: as §1

DYRK2 = target: T17, DYRK2 (Homo sapiens, UniProt Q92630); assay: scanMAX binding assay, DYRK2; conditions: Percent of Control; legend and method: 1 μM; read-out: DYRK2 PoC @ 1 µM
T17 construct: purchased Eurofins DiscoverX Corporation
From the text: as §1

GSK3β (NLuc-GSK3β) = target: T18, GSK3β (NLuc-GSK3β) (Homo sapiens, UniProt P49841); assay: NanoBRET cellular target engagement assay, NLuc-GSK3β in HEK293T cells; assay type: cell-based; conditions: live HEK293T cells, 0.063 μM tracer K-8; read-out: NL-GSK3β NanoBRET IC50
T18 construct: host or cells: HEK293T
Procedure: (§3) HEK293T cells (hypotriploid, fetal) were purchased from ATCC. These cells were grown in Dulbecco’s modified Eagle’s medium (Gibco) supplemented with 10% (v/v) fetal bovine serum (Corning). They were incubated in 5% CO2 at 37 °C and passaged every 72 h with trypsin and not allowed to reach confluency. Constructs for NanoBRET measurements of CK1γ2 (NLuc-CK1γ2) and GSK3β (NLuc-GSK3β) were kindly provided by Promega. NanoBRET assays were carried out as described previously ([74]). Preferred NLuc orientations, both N-terminal in this case, are indicated in parentheses after each construct. Assays were carried out in dose–response as described by the manufacturer using 0.5 μM of tracer K-10 for CK1γ2 and 0.063 μM of tracer K-8 for GSK3β. Two biological replicates were executed with two technical replicates to produce the graphs with error bars shown in Figures 6E, 7E, 8, A and B. Tracer titration curves for these kinases that motivated our tracer selection and working concentration can be found on the Promega website.

CK1γ2 (NLuc-CK1γ2) = target: T19, CK1γ2 (NLuc-CK1γ2) (Homo sapiens, UniProt P78368); assay: NanoBRET cellular target engagement assay, NLuc-CK1γ2 in HEK293T cells; assay type: cell-based; conditions: live HEK293T cells, 0.5 μM tracer K-10
T19 construct: host or cells: HEK293T
Procedure: as §3

T11 sequence (Q9HCP0 whole entry): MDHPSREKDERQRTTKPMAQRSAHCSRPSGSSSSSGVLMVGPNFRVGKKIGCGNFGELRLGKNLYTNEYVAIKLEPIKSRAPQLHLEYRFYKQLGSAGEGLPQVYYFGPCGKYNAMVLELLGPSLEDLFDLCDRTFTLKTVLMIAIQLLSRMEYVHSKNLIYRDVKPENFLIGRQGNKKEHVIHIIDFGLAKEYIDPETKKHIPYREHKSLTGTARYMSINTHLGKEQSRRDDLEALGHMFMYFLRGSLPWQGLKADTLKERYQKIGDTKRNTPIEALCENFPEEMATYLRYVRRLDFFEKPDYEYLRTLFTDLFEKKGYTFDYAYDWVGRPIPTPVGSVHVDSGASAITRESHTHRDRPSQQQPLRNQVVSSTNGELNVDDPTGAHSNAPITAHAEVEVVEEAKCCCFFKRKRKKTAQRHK
T9 sequence (Q9Y6M4 whole entry): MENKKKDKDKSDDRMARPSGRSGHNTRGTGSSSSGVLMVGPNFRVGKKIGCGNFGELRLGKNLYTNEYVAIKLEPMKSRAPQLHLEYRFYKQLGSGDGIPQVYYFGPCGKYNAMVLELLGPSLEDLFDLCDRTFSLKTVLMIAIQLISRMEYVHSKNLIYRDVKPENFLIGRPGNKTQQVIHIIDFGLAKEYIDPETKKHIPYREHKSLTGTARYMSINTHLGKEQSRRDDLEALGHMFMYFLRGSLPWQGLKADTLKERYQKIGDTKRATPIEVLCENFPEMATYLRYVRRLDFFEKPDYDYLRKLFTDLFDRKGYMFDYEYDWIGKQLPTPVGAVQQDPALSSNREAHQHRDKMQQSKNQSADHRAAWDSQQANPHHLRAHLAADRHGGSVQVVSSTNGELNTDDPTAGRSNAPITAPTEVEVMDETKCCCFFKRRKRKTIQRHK
T2 sequence (Q8TD08 whole entry): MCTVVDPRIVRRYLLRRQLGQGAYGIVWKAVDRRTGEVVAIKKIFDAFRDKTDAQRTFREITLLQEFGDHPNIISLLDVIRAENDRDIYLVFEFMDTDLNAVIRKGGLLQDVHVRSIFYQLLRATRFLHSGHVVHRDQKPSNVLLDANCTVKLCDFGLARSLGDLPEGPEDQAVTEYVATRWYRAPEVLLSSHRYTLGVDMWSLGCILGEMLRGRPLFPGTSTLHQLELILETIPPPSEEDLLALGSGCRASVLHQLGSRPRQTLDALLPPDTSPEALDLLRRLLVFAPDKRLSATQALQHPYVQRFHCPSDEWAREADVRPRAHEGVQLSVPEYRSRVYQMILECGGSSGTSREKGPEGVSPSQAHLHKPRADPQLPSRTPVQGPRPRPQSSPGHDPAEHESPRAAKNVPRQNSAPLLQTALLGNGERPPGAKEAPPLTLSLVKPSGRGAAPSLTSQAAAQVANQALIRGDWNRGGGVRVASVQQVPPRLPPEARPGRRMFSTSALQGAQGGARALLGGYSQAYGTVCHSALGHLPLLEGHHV
T6 sequence (Q9UPZ9 whole entry): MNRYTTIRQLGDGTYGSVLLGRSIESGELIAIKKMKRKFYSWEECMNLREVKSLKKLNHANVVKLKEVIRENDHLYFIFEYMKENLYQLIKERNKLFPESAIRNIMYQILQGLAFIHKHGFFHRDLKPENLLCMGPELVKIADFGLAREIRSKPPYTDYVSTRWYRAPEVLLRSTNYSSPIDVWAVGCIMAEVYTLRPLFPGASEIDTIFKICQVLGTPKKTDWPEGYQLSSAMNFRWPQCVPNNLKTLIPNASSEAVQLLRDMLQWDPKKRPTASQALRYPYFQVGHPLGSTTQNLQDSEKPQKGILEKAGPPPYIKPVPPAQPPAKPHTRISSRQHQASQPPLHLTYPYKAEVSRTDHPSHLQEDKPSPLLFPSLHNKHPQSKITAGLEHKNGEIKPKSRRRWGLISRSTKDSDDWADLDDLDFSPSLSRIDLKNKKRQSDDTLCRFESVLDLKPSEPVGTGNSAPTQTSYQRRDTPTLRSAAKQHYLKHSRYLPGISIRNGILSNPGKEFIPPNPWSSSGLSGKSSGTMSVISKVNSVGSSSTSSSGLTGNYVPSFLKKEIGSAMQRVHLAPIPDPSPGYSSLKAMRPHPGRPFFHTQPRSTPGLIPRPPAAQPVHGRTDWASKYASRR
T8 sequence (P50613 whole entry): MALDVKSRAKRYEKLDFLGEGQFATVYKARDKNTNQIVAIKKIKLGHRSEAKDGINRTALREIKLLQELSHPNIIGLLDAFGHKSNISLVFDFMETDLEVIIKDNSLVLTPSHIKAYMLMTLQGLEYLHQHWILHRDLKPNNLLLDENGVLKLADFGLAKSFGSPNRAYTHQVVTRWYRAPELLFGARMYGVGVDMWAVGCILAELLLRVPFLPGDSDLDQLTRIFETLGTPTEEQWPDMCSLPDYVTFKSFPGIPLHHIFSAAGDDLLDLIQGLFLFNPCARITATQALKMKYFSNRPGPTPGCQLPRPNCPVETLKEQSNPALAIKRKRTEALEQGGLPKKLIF
T3 sequence (Q07002 whole entry): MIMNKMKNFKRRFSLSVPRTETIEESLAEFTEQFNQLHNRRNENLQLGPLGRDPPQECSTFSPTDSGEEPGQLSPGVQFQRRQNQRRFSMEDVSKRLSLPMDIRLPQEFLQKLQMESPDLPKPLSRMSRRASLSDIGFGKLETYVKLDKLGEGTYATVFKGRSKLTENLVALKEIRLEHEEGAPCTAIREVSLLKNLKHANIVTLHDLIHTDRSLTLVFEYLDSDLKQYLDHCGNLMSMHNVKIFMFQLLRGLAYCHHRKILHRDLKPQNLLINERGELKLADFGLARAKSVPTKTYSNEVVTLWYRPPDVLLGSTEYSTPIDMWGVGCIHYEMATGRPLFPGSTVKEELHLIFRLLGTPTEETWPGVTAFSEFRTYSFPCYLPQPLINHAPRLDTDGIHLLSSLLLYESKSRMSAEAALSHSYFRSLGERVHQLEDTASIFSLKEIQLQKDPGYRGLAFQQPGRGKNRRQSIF
T13 sequence (Q6P2M8 whole entry): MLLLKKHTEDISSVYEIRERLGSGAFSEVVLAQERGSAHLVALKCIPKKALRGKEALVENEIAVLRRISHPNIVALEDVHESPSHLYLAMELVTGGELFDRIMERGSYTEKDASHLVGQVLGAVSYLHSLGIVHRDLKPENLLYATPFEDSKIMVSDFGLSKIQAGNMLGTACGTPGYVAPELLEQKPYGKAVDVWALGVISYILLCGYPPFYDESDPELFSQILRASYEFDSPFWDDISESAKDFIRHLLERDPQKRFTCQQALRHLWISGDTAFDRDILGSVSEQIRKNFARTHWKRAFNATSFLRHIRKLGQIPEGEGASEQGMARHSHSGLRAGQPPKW
T17 sequence (Q92630 whole entry): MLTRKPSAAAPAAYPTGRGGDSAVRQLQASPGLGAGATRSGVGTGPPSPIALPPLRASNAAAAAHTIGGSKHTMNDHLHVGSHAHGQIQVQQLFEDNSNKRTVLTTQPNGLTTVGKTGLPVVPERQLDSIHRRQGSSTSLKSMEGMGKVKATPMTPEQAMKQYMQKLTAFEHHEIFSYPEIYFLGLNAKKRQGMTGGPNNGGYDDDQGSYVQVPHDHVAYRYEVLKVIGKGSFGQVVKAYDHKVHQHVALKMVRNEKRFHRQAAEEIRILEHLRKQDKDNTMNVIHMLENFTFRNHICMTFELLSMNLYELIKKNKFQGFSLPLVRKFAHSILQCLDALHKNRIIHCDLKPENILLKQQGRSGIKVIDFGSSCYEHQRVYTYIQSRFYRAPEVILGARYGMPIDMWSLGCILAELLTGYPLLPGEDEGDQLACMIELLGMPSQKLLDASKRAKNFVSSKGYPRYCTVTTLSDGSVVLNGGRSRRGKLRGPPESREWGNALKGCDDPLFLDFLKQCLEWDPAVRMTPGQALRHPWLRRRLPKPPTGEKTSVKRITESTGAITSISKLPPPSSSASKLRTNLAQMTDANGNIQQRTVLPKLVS
T12 sequence (Q00536 whole entry): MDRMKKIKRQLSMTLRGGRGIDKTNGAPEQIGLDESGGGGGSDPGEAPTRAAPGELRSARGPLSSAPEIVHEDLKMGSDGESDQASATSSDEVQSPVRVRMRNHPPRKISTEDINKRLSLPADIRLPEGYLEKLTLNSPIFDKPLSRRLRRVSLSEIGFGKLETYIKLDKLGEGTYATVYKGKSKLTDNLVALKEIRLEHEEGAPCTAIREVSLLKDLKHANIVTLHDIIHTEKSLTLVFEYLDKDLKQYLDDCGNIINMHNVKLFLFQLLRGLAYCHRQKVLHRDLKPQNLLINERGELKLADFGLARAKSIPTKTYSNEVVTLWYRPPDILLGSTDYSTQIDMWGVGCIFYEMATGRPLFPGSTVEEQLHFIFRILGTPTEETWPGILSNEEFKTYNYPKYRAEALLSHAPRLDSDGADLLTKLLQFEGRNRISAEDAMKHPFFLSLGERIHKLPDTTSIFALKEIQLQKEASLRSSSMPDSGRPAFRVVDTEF
T14 sequence (P49840 whole entry): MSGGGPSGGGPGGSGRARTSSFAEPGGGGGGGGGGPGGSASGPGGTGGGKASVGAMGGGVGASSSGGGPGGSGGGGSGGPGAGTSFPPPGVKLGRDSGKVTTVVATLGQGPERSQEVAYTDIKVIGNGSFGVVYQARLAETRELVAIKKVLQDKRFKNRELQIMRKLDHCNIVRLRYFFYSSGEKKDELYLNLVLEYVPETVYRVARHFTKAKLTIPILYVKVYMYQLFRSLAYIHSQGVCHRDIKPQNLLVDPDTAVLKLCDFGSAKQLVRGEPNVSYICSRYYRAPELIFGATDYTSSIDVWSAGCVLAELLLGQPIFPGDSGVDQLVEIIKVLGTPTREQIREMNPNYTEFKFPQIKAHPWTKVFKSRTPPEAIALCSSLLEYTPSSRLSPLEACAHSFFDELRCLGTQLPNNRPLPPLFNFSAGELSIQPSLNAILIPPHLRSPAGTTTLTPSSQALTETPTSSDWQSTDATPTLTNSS

Compound: Cc1c[nH]c(-c2cnc(NCCNc3ccc(C#N)cn3)nc2-c2ccc(Cl)cc2Cl)n1 [CHIR99021, reference compound]
activation of the BAR reporter [1]: robustly activated

Compound: ERBB2
Fold over control siRNA [2]: 3.138 | Average BAR firefly Luciferase (Raw) [2]: 83000

Compound: Cc1cc(-c2ccc(CC(=O)Nc3ccc(-c4cccnc4)cc3)cc2)ccn1 [C59, reference compound]
BAR activation by CK1γ3 overexpression in the absence of WNT3A CM ([1]; HEK293T B/R cells transfected 14 h, 10 μM C59 for 18 h): blocked this activation

Compound: EPHA2
Fold over control siRNA [2]: 0.4994 | Average BAR firefly Luciferase (Raw) [2]: 13210

remaining binding at 1 µM (PCTK2): 1.4% | remaining binding at 1 µM (PCTK3): 1.2% | remaining binding at 1 µM (DYRK1B): 6% | remaining binding at 1 µM (CDKL5): 0.2% | remaining binding at 1 µM (ICK): 1.6% | remaining binding at 1 µM (GSK3β): 0.4% | remaining binding at 1 µM (CDK7): 1.2% | remaining binding at 1 µM (CK1γ3 [3]): 3.3% | remaining binding at 1 µM (PFTK1): 3.5% | remaining binding at 1 µM (CK1γ1 [4]): 5.2% | IC50 (CK1γ3 [5]): ≤ 275 nM and 168 nM | remaining binding at 1 µM (PCTK1): 0.2% | remaining binding at 1 µM (CAMK1B): 0% | remaining binding at 1 µM (GSK3α): 0.9% | remaining binding at 1 µM (CK1γ2): 1% | IC50 (CK1γ1 [6]): ≤ 275 nM and 275 nM | remaining binding at 1 µM (DCAMKL3): 1.9% | remaining binding at 1 µM (DYRK2): 7.2%
Compound: CN(C)CC(=O)Nc1n[nH]c2ccc(-c3cn(Cc4ccccc4)nn3)cc12 [AKI00000062a]
activation of the BAR reporter [1]: robustly activated | remaining binding at 1 µM (ERK8): 2.5%

IC50 (GSK3β (NLuc-GSK3β)): 0.23 nM | NL-CK1γ2 NanoBRET IC50 (CK1γ2 (NLuc-CK1γ2)): inactive
Compound: Cc1cc(Nc2cc(C3CC3)[nH]n2)nc(Nc2ccc(CC#N)cc2)n1 [APY69, reference compound]
